Measured values as given in patent publication US20260108503A1, “POLYMERIC MICELLE NANOCARRIERS FOR TARGETED EPIDERMAL DELIVERY OF THE HEDGEHOG PATHWAY INHIBITOR TAK-441” (UNIVERSITÉ DE GENÈ DE GENÈVE, priority 2022, published 2026).
“Also recorded” adds a separate entry of the source.

Tests used:
[1] = cited from earlier work
[2] = Cutaneous delivery and biodistribution in vitro, Franz-type diffusion cells, human skin; format: in vitro ADME
Description: Human skin samples were obtained shortly after surgery from the Department of Plastic, Aesthetic and Reconstructive Surgery, Geneva University Hospital (Geneva, Switzerland), fatty tissue was removed and the skin was stored at −20° C. The donation was approved by the Central Committee for Ethics in Research (CER: 08-150 (NAC08-051); Geneva University Hospital).
The experiments were performed using standard two-compartment vertical (Franz-type) diffusion cells, (Milian SA; Meyrin, Switzerland) with a cross-sectional area of 2 cm^2. The receptor compartment consisted of 10-mL Dulbecco's phosphate-buffered saline (DPBS) pH 7.4 containing 1% BSA to maintain sink conditions. The receiver compartment was maintained between 32° C.-34° C. For infinite dose conditions, 200 μL of TAK-441 micelle formulation (3 mg/mL) was applied to the skin sample surface (i.e., 300 μg of TAK-441/cm^2 of the skin surface) and for finite dose, 20 μL of micelle formulation (3 mg/mL) was applied (30 μg of TAK-441/cm^2 of the skin surface). […]
(§1) TAK-441 had the least solubility in HPC; this characteristic would minimize the risk of interference of the suspending agent on drug delivery. […] After centrifugation at 10,000 rpm for 15 min, the permeation samples were analyzed by UHPLC-MS/MS. […]
(§2) Upon completion of the experiment, a punch was used to separate the skin sample into two parts—an inner disk with a surface area of 0.785 cm^2 and a remaining outer ring with an area of 1.215 cm^2. This outer ring was subsequently cut into small pieces, and TAK-441 deposited in the tissue was extracted by the validated extraction method (section 1.4.5.2) followed by quantification using UHPLC-MS/MS.
The 0.785-cm^2 disks were used to determine the TAK-441 biodistribution as a function of depth in the skin. […] These lamellae enabled the amounts of TAK-441 to be determined as a function of position in the skin, encompassing the stratum corneum, epidermis, and upper dermis, respectively. Each lamella and the remaining dermis were individually extracted in 250-μL methanol for 4 h and TAK-441 was quantified by UHPLC-MS/MS.

[3] = Determination of TAK-441 content in the micelles (UHPLC-MS/MS); format: physicochemical; details: incorporation of TAK-441 in TPGS micelles
Description: TAK-441 loaded into the micelles was quantified by UHPLC-MS/MS. To ensure complete micelle destruction and release of the incorporated drug, formulations were diluted in acetonitrile and analyzed. The drug content, drug loading, and entrapment efficiency were calculated using equations 1-3: […]

[4] = tested on: HH pathway; details: NIH3T3 cells, Gli-reporter luciferase; read-out: IC50, inhibition of the hedgehog pathway; cited from earlier work
[5] = Cutaneous delivery and biodistribution in vitro, Franz-type diffusion cells, porcine skin; format: in vitro ADME; details: 12 h application
From the text: Porcine ears were purchased from a local abattoir (CARRE; Rolle, Switzerland) shortly after sacrifice. After washing under running cold water, skin samples with a thickness of approximately 0.8 mm were carefully harvested from the outer region of the ear using a Zimmer air dermatome (Münsingen, Switzerland). Hair was removed from the skin surface using clippers. Discs corresponding to the permeation area were punched out (Berg & Schmid HK 500; Urdorf, Switzerland). Skin samples were frozen at −20° C. and stored for a maximum period of 3 months. Before the experiment, skin samples were thawed at room temperature and placed for 15 min in 0.9% saline solution for rehydration. […]
as §1
as §2, with “UHPLC-MS/MS. […]” for “UHPLC-MS/MS.”

[6] = cited from earlier work; remark: listed apart in the source
[7] = tested on: Gli1 expression; details: oral, all doses (50 mg/day to 1600 mg/day); cited from earlier work
[8] = target: vismodegib-resistant SMO mutant D473H (Homo sapiens, UniProt Q99835, D473H); details: cited from earlier work
vismodegib-resistant SMO mutant D473H, sequence (Q99835 28-787 D473H): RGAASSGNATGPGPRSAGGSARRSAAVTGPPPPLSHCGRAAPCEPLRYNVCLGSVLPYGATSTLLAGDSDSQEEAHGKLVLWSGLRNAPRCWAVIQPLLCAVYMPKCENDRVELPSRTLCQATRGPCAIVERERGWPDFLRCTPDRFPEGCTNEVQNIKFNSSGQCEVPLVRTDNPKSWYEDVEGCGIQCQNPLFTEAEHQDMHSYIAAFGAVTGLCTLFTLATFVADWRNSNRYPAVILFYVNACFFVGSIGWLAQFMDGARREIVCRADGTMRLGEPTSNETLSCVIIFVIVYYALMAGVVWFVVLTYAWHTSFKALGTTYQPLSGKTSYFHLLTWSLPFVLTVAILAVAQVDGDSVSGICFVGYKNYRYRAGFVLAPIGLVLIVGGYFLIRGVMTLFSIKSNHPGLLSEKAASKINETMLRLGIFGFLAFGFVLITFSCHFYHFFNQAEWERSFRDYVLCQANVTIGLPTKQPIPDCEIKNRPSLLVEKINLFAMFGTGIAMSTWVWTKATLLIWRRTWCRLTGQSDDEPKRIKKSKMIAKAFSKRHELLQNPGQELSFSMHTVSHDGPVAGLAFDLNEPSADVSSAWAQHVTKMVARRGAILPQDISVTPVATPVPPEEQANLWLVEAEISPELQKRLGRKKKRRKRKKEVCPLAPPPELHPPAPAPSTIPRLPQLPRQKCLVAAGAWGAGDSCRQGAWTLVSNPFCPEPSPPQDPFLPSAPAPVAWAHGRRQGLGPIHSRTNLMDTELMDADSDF

[9] = human, in vivo; cited from earlier work

Compound	log P [1]	cumulative permeation ([2]; conclusion, corresponding to LOD)	concentrations in the permeation samples (below LOD) ([2]; conclusion, permeation samples, UHPLC-MS/MS)	transdermal permeation across human skin ([2]; human skin, 12 h application)	increase of aqueous solubility [3]	IC50 [4]	cumulative permeation (receiver compartment below LOD) [5]	death assessed to be study drug-related ([6]; cerebral hemorrhage, patient with pancreatic cancer)	patients who experienced at least one adverse effect (AE) ([6]; oral, Phase I)	patients who experienced serious AE ([6]; oral, Phase I)	Gli1 expression in skin biopsies [7]	activity against vismodegib-resistant Smoothened receptor D473H mutant [8]	treatment outcome in patients with resistance to vismodegib [9]
CCc1cc2c(c(OCC(F)(F)F)c(C(=O)NC3CCN(C(=O)CO)CC3)n2C)c(=O)n1CC(=O)c1ccccc1 [TAK-441]	2.61	< 0.1 pg/cm^2	< 1.29 ng/mL	below the LOD	approximately 40 fold	4.4 nM	< 0.1 pg/cm^2	One death	All patients	Approximately 35%	strongly inhibited	active; also recorded: effective	
Cc1c(C(=O)Nc2ccc(N3C[C@@H](C)O[C@@H](C)C3)nc2)cccc1-c1ccc(OC(F)(F)F)cc1 [sonidegib]													ineffective
